{"source": "patent US20240350469A1", "about": "“TREATMENT OF LOWER RESPIRATORY TRACT INFECTION WITH TRADIPITANT” (Vanda Pharmaceuticals Inc., priority 2021, published 2024)", "test_system": "severe or critical COVID-19 infection", "assay": "Randomized, double-blind, placebo-controlled study of tradipitant in hospitalized patients with COVID-19 pneumonia (interim analysis, ITT)", "format": "in vivo", "details": "for Ordinal Score at Day 7 = 7 (Not hospitalized), no. of patients / Ordinal Score at Day 28 = 1 (Death), % of patients / Ordinal Score at Day 28 = 1 (Death), no. of patients / Ordinal Score at Day 28 = 2 (Hospitalized, on invasive mechanical ventilation or ECMO), % of patients / Ordinal Score at Day 28 = 2 (Hospitalized, on invasive mechanical ventilation or ECMO), no. of patients / Ordinal Score at Day 28 = 3 (Hospitalized, on non-invasive ventilation or high flow oxygen devices), % of patients / Ordinal Score at Day 28 = 3 (Hospitalized, on non-invasive ventilation or high flow oxygen devices), no. of patients / Ordinal Score at Day 28 = 4 (Hospitalized, requiring supplemental oxygen), % of patients / Ordinal Score at Day 28 = 4 (Hospitalized, requiring supplemental oxygen), no. of patients / Ordinal Score at Day 28 = 7 (Not hospitalized), % of patients / Ordinal Score at Day 28 = 7 (Not hospitalized), no. of patients / No. of deaths by day 7 / No. of deaths by day 28 / Ordinal Score at Day 7 = 1 (Death), % of patients / Ordinal Score at Day 7 = 1 (Death), no. of patients / Ordinal Score at Day 7 = 2 (Hospitalized, on invasive mechanical ventilation or ECMO), % of patients / Ordinal Score at Day 7 = 2 (Hospitalized, on invasive mechanical ventilation or ECMO), no. of patients / Ordinal Score at Day 7 = 3 (Hospitalized, on non-invasive ventilation or high flow oxygen devices), % of patients / Ordinal Score at Day 7 = 3 (Hospitalized, on non-invasive ventilation or high flow oxygen devices), no. of patients / Ordinal Score at Day 7 = 4 (Hospitalized, requiring supplemental oxygen), % of patients / Ordinal Score at Day 7 = 4 (Hospitalized, requiring supplemental oxygen), no. of patients / Ordinal Score at Day 7 = 5 (Hospitalized, not requiring supplemental oxygen), % of patients / Ordinal Score at Day 7 = 5 (Hospitalized, not requiring supplemental oxygen), no. of patients / Ordinal Score at Day 7 = 7 (Not hospitalized), % of patients: ITT", "key": {"[1]": {"details": "ordinal score at baseline 3, tradipitant N = 13"}, "[2]": {"details": "ordinal score at baseline 4, tradipitant N = 9"}}, "data": [{"smiles": "O=C(c1ccccc1Cl)c1cccnc1-c1nnn(Cc2cc(C(F)(F)F)cc(C(F)(F)F)c2)c1-c1ccncc1", "note": "[Tradipitant]", "values": [{"measurement": "Ordinal Score at Day 7 = 7 (Not hospitalized), no. of patients", "setting": "[1]", "value": 1}, {"measurement": "Ordinal Score at Day 28 = 1 (Death), % of patients", "setting": "[1]", "value": "(7.7) %"}, {"measurement": "Ordinal Score at Day 28 = 1 (Death), no. of patients", "setting": "[1]", "value": 1}, {"measurement": "Ordinal Score at Day 28 = 2 (Hospitalized, on invasive mechanical ventilation or ECMO), % of patients", "setting": "[1]", "value": "(61.5) %"}, {"measurement": "Ordinal Score at Day 28 = 2 (Hospitalized, on invasive mechanical ventilation or ECMO), no. of patients", "setting": "[1]", "value": 8}, {"measurement": "Ordinal Score at Day 28 = 3 (Hospitalized, on non-invasive ventilation or high flow oxygen devices), % of patients", "setting": "[1]", "value": "(0.0) %"}, {"measurement": "Ordinal Score at Day 28 = 3 (Hospitalized, on non-invasive ventilation or high flow oxygen devices), no. of patients", "setting": "[1]", "value": 0}, {"measurement": "Ordinal Score at Day 28 = 4 (Hospitalized, requiring supplemental oxygen), % of patients", "setting": "[1]", "value": "(0.0) %"}, {"measurement": "Ordinal Score at Day 28 = 4 (Hospitalized, requiring supplemental oxygen), no. of patients", "setting": "[1]", "value": 0}, {"measurement": "Ordinal Score at Day 28 = 7 (Not hospitalized), % of patients", "setting": "[1]", "value": "(30.8) %"}, {"measurement": "Ordinal Score at Day 28 = 7 (Not hospitalized), no. of patients", "setting": "[1]", "value": 4}, {"measurement": "No. of deaths by day 7", "setting": "[2]", "value": 1}, {"measurement": "No. of deaths by day 28", "setting": "[2]", "value": 1}, {"measurement": "Ordinal Score at Day 7 = 1 (Death), % of patients", "setting": "[2]", "value": "(11.1) %"}, {"measurement": "Ordinal Score at Day 7 = 1 (Death), no. of patients", "setting": "[2]", "value": 1}, {"measurement": "Ordinal Score at Day 7 = 2 (Hospitalized, on invasive mechanical ventilation or ECMO), % of patients", "setting": "[2]", "value": "(0.0) %"}, {"measurement": "Ordinal Score at Day 7 = 2 (Hospitalized, on invasive mechanical ventilation or ECMO), no. of patients", "setting": "[2]", "value": 0}, {"measurement": "Ordinal Score at Day 7 = 3 (Hospitalized, on non-invasive ventilation or high flow oxygen devices), % of patients", "setting": "[2]", "value": "(11.1) %"}, {"measurement": "Ordinal Score at Day 7 = 3 (Hospitalized, on non-invasive ventilation or high flow oxygen devices), no. of patients", "setting": "[2]", "value": 1}, {"measurement": "Ordinal Score at Day 7 = 4 (Hospitalized, requiring supplemental oxygen), % of patients", "setting": "[2]", "value": "(11.1) %"}, {"measurement": "Ordinal Score at Day 7 = 4 (Hospitalized, requiring supplemental oxygen), no. of patients", "setting": "[2]", "value": 1}, {"measurement": "Ordinal Score at Day 7 = 5 (Hospitalized, not requiring supplemental oxygen), % of patients", "setting": "[2]", "value": "(0.0) %"}, {"measurement": "Ordinal Score at Day 7 = 5 (Hospitalized, not requiring supplemental oxygen), no. of patients", "setting": "[2]", "value": 0}, {"measurement": "Ordinal Score at Day 7 = 7 (Not hospitalized), % of patients", "setting": "[2]", "value": "(66.7) %"}, {"measurement": "Ordinal Score at Day 7 = 7 (Not hospitalized), no. of patients", "setting": "[2]", "value": 6}, {"measurement": "Ordinal Score at Day 28 = 1 (Death), % of patients", "setting": "[2]", "value": "(11.1) %"}, {"measurement": "Ordinal Score at Day 28 = 1 (Death), no. of patients", "setting": "[2]", "value": 1}, {"measurement": "Ordinal Score at Day 28 = 2 (Hospitalized, on invasive mechanical ventilation or ECMO), % of patients", "setting": "[2]", "value": "(0.0) %"}, {"measurement": "Ordinal Score at Day 28 = 2 (Hospitalized, on invasive mechanical ventilation or ECMO), no. of patients", "setting": "[2]", "value": 0}, {"measurement": "Ordinal Score at Day 28 = 3 (Hospitalized, on non-invasive ventilation or high flow oxygen devices), % of patients", "setting": "[2]", "value": "(11.1) %"}, {"measurement": "Ordinal Score at Day 28 = 3 (Hospitalized, on non-invasive ventilation or high flow oxygen devices), no. of patients", "setting": "[2]", "value": 1}, {"measurement": "Ordinal Score at Day 28 = 4 (Hospitalized, requiring supplemental oxygen), % of patients", "setting": "[2]", "value": "(0.0) %"}, {"measurement": "Ordinal Score at Day 28 = 4 (Hospitalized, requiring supplemental oxygen), no. of patients", "setting": "[2]", "value": 0}, {"measurement": "Ordinal Score at Day 28 = 7 (Not hospitalized), % of patients", "setting": "[2]", "value": "(77.8) %"}, {"measurement": "Ordinal Score at Day 28 = 7 (Not hospitalized), no. of patients", "setting": "[2]", "value": 7}, {"measurement": "No. of deaths by day 7", "setting": "overall, tradipitant N = 28", "value": 2}, {"measurement": "No. of deaths by day 28", "setting": "overall, tradipitant N = 28", "value": 4}, {"measurement": "Ordinal Score at Day 7 = 1 (Death), % of patients", "setting": "overall, tradipitant N = 28", "value": "(7.1) %"}, {"measurement": "Ordinal Score at Day 7 = 1 (Death), no. of patients", "setting": "overall, tradipitant N = 28", "value": 2}, {"measurement": "Ordinal Score at Day 7 = 2 (Hospitalized, on invasive mechanical ventilation or ECMO), % of patients", "setting": "overall, tradipitant N = 28", "value": "(32.1) %"}, {"measurement": "Ordinal Score at Day 7 = 2 (Hospitalized, on invasive mechanical ventilation or ECMO), no. of patients", "setting": "overall, tradipitant N = 28", "value": 9}, {"measurement": "Ordinal Score at Day 7 = 3 (Hospitalized, on non-invasive ventilation or high flow oxygen devices), % of patients", "setting": "overall, tradipitant N = 28", "value": "(14.3) %"}, {"measurement": "Ordinal Score at Day 7 = 3 (Hospitalized, on non-invasive ventilation or high flow oxygen devices), no. of patients", "setting": "overall, tradipitant N = 28", "value": 4}, {"measurement": "Ordinal Score at Day 7 = 4 (Hospitalized, requiring supplemental oxygen), % of patients", "setting": "overall, tradipitant N = 28", "value": "(7.1) %"}, {"measurement": "Ordinal Score at Day 7 = 4 (Hospitalized, requiring supplemental oxygen), no. of patients", "setting": "overall, tradipitant N = 28", "value": 2}, {"measurement": "Ordinal Score at Day 7 = 5 (Hospitalized, not requiring supplemental oxygen), % of patients", "setting": "overall, tradipitant N = 28", "value": "(7.1) %"}, {"measurement": "Ordinal Score at Day 7 = 5 (Hospitalized, not requiring supplemental oxygen), no. of patients", "setting": "overall, tradipitant N = 28", "value": 2}, {"measurement": "Ordinal Score at Day 7 = 7 (Not hospitalized), % of patients", "setting": "overall, tradipitant N = 28", "value": "(32.1) %"}, {"measurement": "Ordinal Score at Day 7 = 7 (Not hospitalized), no. of patients", "setting": "overall, tradipitant N = 28", "value": 9}, {"measurement": "Ordinal Score at Day 28 = 1 (Death), % of patients", "setting": "overall, tradipitant N = 28", "value": "(14.3) %"}, {"measurement": "Ordinal Score at Day 28 = 1 (Death), no. of patients", "setting": "overall, tradipitant N = 28", "value": 4}, {"measurement": "Ordinal Score at Day 28 = 2 (Hospitalized, on invasive mechanical ventilation or ECMO), % of patients", "setting": "overall, tradipitant N = 28", "value": "(28.6) %"}, {"measurement": "Ordinal Score at Day 28 = 2 (Hospitalized, on invasive mechanical ventilation or ECMO), no. of patients", "setting": "overall, tradipitant N = 28", "value": 8}, {"measurement": "Ordinal Score at Day 28 = 3 (Hospitalized, on non-invasive ventilation or high flow oxygen devices), % of patients", "setting": "overall, tradipitant N = 28", "value": "(3.6) %"}, {"measurement": "Ordinal Score at Day 28 = 3 (Hospitalized, on non-invasive ventilation or high flow oxygen devices), no. of patients", "setting": "overall, tradipitant N = 28", "value": 1}, {"measurement": "Ordinal Score at Day 28 = 4 (Hospitalized, requiring supplemental oxygen), % of patients", "setting": "overall, tradipitant N = 28", "value": "(0.0) %"}, {"measurement": "Ordinal Score at Day 28 = 4 (Hospitalized, requiring supplemental oxygen), no. of patients", "setting": "overall, tradipitant N = 28", "value": 0}, {"measurement": "Ordinal Score at Day 28 = 7 (Not hospitalized), % of patients", "setting": "overall, tradipitant N = 28", "value": "(53.6) %"}, {"measurement": "Ordinal Score at Day 28 = 7 (Not hospitalized), no. of patients", "setting": "overall, tradipitant N = 28", "value": 15}, {"measurement": "Mortality rate", "setting": "tradipitant arm, interim analysis, placebo arm 16.6%, not statistically significant", "value": 14.2, "unit": "%"}, {"measurement": "Patients showing clinical improvement (at least a 2 point improvement in the 7 point ordinal scale)", "setting": "tradipitant arm, interim analysis, placebo arm 50%, not statistically significant", "value": 57, "unit": "%"}, {"measurement": "Time to improvement analysis", "setting": "tradipitant vs placebo, FIG. 1, statistically significant at day 7", "value": "recover earlier than those receiving placebo"}]}]}
